# Activity calls are given as the source filed them.
# Experiments:
# Actin-related protein 2 = Actin-related protein 2 (Homo sapiens, UniProt P61160)
# [1] = target: Chromodomain-helicase-DNA-binding protein 4 (Homo sapiens, UniProt Q14839)
# [2] = target: T1, Dual specificity mitogen-activated protein kinase kinase 6 (Homo sapiens, UniProt P52564)
# T1 sequence (P52564 whole entry): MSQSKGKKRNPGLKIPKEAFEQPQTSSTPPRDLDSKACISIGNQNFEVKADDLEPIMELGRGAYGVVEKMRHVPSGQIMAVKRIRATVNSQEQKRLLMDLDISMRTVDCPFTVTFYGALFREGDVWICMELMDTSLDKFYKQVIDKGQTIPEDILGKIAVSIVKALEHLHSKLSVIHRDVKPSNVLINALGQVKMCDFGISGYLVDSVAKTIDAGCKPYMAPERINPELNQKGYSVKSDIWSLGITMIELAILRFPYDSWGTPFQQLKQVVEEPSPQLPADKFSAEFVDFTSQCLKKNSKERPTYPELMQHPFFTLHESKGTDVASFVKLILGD
# [3] = target: T2, Ribosyldihydronicotinamide dehydrogenase [quinone] (Homo sapiens, UniProt P16083)
# T2 sequence (P16083 whole entry): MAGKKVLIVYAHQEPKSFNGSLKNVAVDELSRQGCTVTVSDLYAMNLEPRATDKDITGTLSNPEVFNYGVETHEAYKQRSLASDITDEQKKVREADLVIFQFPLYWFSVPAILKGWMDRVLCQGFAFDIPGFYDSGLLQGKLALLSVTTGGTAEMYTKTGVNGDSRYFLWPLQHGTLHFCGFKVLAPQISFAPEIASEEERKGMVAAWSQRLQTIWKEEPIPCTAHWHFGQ
# [4] = target: T3, Bifunctional phosphoribosylaminoimidazole carboxylase/phosphoribosylaminoimidazole succinocarboxamide synthetase (Homo sapiens, UniProt P22234)
# T3 sequence (P22234 whole entry): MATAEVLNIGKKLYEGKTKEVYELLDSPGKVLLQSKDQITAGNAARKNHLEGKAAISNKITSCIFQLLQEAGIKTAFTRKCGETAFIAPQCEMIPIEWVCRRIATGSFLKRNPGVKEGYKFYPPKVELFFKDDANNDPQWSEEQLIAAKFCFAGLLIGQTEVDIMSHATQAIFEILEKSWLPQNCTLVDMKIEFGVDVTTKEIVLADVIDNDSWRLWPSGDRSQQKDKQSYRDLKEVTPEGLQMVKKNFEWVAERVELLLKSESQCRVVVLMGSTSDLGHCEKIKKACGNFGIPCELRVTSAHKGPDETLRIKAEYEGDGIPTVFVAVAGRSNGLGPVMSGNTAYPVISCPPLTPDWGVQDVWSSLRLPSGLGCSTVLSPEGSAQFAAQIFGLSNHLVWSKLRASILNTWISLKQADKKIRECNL
# [5] = target: T4, Succinate--CoA ligase [ADP-forming] subunit beta, mitochondrial (Homo sapiens, UniProt Q9P2R7)
# T4 sequence (Q9P2R7 whole entry): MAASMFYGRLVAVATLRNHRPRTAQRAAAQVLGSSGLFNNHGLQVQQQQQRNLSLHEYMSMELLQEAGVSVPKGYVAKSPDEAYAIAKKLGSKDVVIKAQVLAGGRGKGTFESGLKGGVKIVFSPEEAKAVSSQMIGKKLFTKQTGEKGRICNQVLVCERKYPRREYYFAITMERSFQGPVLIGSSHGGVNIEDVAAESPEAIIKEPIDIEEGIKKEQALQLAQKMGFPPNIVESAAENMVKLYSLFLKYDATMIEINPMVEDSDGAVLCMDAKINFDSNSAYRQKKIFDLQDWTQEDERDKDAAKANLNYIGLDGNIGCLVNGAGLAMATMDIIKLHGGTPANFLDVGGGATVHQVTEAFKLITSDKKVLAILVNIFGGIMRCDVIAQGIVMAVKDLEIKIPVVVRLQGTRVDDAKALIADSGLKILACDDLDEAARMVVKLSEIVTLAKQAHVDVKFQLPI
# [6] = target: T5, Serine/threonine-protein kinase ULK1 (Homo sapiens, UniProt O75385)
# T5 sequence (O75385 whole entry): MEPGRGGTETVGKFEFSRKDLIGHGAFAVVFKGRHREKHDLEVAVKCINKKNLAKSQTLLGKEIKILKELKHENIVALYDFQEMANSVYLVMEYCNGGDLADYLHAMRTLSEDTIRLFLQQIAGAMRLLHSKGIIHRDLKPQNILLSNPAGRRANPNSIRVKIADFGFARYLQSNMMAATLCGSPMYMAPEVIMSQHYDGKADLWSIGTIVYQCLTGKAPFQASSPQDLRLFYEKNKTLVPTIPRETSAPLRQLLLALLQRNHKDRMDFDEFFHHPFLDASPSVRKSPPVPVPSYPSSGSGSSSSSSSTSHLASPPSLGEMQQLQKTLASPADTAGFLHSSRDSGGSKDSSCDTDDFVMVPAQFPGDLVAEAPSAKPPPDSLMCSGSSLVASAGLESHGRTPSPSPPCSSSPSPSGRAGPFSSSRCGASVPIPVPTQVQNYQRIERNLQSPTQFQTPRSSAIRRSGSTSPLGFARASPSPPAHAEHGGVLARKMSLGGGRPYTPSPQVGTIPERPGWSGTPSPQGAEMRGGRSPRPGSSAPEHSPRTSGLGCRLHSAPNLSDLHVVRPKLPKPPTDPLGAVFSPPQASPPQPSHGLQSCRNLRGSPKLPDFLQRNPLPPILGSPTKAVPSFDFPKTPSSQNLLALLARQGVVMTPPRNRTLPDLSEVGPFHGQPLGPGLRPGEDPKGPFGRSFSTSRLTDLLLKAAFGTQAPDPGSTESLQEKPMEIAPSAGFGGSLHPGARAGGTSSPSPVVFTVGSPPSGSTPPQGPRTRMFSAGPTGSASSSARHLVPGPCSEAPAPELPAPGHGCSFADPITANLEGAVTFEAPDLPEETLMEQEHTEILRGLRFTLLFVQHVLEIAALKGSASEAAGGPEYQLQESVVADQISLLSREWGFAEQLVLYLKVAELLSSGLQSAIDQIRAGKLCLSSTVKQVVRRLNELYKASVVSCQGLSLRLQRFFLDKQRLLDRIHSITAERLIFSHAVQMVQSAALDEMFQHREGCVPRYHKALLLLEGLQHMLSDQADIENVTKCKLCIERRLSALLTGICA
# Note: in the data inactive means no Kd found up to 30 µM.
# Chain of Chromodomain-helicase-DNA-binding protein 4 (Q14839 whole entry): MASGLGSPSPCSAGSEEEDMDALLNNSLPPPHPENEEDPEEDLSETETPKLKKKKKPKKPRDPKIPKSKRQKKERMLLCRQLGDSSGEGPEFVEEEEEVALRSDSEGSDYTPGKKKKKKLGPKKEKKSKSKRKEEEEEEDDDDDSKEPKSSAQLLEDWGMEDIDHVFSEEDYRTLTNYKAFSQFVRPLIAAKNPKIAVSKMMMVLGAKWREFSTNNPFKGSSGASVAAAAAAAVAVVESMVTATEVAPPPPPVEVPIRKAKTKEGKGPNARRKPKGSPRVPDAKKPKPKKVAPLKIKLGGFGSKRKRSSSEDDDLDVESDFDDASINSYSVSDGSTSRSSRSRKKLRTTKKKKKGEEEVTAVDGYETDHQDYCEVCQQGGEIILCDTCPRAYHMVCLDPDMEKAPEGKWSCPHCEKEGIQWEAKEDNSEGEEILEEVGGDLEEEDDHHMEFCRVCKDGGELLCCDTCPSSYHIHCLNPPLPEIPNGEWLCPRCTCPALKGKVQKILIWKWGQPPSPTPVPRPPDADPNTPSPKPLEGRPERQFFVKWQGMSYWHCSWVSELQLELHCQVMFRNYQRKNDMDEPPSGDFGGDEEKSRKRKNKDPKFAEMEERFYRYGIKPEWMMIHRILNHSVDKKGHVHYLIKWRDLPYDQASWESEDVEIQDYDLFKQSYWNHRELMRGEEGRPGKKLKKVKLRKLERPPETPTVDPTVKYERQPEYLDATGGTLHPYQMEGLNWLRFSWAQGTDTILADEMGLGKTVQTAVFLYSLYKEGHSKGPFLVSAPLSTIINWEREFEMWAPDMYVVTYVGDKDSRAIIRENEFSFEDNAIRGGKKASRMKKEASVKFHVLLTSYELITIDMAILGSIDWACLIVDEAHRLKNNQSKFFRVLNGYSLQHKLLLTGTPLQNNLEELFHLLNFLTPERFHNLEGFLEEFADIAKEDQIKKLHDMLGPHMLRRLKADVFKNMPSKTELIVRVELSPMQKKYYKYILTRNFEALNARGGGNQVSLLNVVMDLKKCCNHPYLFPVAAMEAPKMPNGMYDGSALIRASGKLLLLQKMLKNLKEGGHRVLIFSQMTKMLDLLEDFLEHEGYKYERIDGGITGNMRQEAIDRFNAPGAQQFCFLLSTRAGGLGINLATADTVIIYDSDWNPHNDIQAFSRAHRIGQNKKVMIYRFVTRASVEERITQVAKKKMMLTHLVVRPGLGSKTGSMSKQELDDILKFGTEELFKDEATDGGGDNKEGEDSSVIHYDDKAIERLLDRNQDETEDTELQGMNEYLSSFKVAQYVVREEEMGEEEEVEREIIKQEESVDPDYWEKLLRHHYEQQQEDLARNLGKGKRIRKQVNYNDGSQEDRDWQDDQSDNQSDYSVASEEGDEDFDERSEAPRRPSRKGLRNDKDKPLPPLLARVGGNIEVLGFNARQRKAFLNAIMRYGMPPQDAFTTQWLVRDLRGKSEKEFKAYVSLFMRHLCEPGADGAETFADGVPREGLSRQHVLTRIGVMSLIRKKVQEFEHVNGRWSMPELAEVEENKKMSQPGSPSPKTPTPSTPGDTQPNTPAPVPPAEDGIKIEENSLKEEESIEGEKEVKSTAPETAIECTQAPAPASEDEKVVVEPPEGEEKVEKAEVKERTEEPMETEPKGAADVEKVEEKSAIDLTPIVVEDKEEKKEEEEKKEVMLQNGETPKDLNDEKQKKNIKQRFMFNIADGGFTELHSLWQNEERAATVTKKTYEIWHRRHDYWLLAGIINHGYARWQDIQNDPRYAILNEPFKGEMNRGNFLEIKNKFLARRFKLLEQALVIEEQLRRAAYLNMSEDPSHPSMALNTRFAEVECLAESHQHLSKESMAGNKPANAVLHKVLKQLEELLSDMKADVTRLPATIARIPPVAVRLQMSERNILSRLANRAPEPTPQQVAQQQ
Kd (Actin-related protein 2),Kd [1],Kd [2],Kd [3],Kd [4],Kd [5],Kd [6],Structure (SMILES)
> 30 µM (inactive),> 30 µM (inactive),> 30 µM (inactive),> 30 µM (inactive),> 30 µM (inactive),> 30 µM (inactive),> 30 µM (inactive),COc1cc2ncnc(Nc3ccc(O)cc3)c2cc1OC [WHI-P131]
> 30 µM (inactive),> 30 µM (inactive),> 30 µM (inactive),> 30 µM (inactive),> 30 µM (inactive),> 30 µM (inactive),> 30 µM (inactive),CNC(=O)c1cc(COc2nnc(Nc3ccc(Cl)cc3)c3ccoc23)ccn1 [TELATINIB]
> 30 µM (inactive),> 30 µM (inactive),> 30 µM (inactive),> 30 µM (inactive),> 30 µM (inactive),> 30 µM (inactive),> 30 µM (inactive),Cn1c(=O)n(-c2ccc(C(C)(C)C#N)cc2)c2c3cc(-c4cnc5ccccc5c4)ccc3ncc21 [DACTOLISIB]
> 30 µM (inactive),> 30 µM (inactive),> 30 µM (inactive),> 30 µM (inactive),> 30 µM (inactive),> 30 µM (inactive),> 30 µM (inactive),COc1cccc(Nc2ncnn3ccc(CN4CC[C@@H](N)[C@H](O)C4)c23)c1 [BMS-690514]
> 30 µM (inactive),> 30 µM (inactive),> 30 µM (inactive),> 30 µM (inactive),> 30 µM (inactive),> 30 µM (inactive),> 30 µM (inactive),O[C@H]1CC[C@H](Nc2ncc3nc(Nc4c(F)cc(F)cc4F)n([C@H]4CCOC4)c3n2)CC1 [TANZISERTIB]
> 30 µM (inactive),> 30 µM (inactive),> 30 µM (inactive),> 30 µM (inactive),> 30 µM (inactive),> 30 µM (inactive),> 30 µM (inactive),CCN1CCN(Cc2ccc(Nc3ncc(F)c(-c4cc(F)c5nc(C)n(C(C)C)c5c4)n3)nc2)CC1 [ABEMACICLIB]
> 30 µM (inactive),> 30 µM (inactive),> 30 µM (inactive),> 30 µM (inactive),> 30 µM (inactive),> 30 µM (inactive),> 30 µM (inactive),FC(F)(F)c1ccc(CNc2ccc(Cc3c[nH]c4ncc(Cl)cc34)cn2)cn1 [PEXIDARTINIB]
> 30 µM (inactive),> 30 µM (inactive),> 30 µM (inactive),> 30 µM (inactive),> 30 µM (inactive),> 30 µM (inactive),> 30 µM (inactive),O=c1[nH]c([C@@H]2CCCN2)nc2c1oc1ccc(Cl)cc12
> 30 µM (inactive),> 30 µM (inactive),> 30 µM (inactive),> 30 µM (inactive),> 30 µM (inactive),> 30 µM (inactive),> 30 µM (inactive),Cc1cc(C(=O)Nc2cc(Oc3ccc4nc(NC(=O)C5CC5)cn4n3)ccc2C)n(C)n1 [TAK-593]
> 30 µM (inactive),> 30 µM (inactive),> 30 µM (inactive),> 30 µM (inactive),> 30 µM (inactive),> 30 µM (inactive),> 30 µM (inactive),Cn1c(=O)c(F)c(Nc2ccc(I)cc2F)c2c(=O)n(C[C@@H](O)CO)cnc21 [TAK-733]
,> 30 µM (inactive),> 30 µM (inactive),> 30 µM (inactive),> 30 µM (inactive),> 30 µM (inactive),> 30 µM (inactive),CC[C@@](C)(Nc1ccnc(-c2c[nH]c3ncccc23)n1)C(=O)NCC(F)(F)F [DECERNOTINIB]
,> 30 µM (inactive),> 30 µM (inactive),> 30 µM (inactive),> 30 µM (inactive),> 30 µM (inactive),> 30 µM (inactive),CCOc1ccn(-c2ccc(F)cc2)c(=O)c1C(=O)Nc1ccc(Oc2ccnc(N)c2Cl)c(F)c1 [BMS-777607]
,> 30 µM (inactive),> 30 µM (inactive),> 30 µM (inactive),> 30 µM (inactive),> 30 µM (inactive),> 30 µM (inactive),COc1cc2ncnc3c2cc1OCCCCCN(C)Cc1ccc(Br)cc1N3 [JNJ-26483327]

Structure (SMILES),Kd (Actin-related protein 2),Kd [1],Kd [2],Kd [3],Kd [4],Kd [5],Kd [6]
Cc1c(NC(=O)OC[C@@H]2COCCN2)cn2ncnc(Nc3ccc4c(cnn4Cc4cccc(F)c4)c3)c12 [AC-480],> 30 µM (inactive),> 30 µM (inactive),> 30 µM (inactive),> 30 µM (inactive),> 30 µM (inactive),> 30 µM (inactive),> 30 µM (inactive)
Cn1cc(-c2[nH]c3cc(NC(=O)[C@H](N)C4CCCCC4)cc4c3c2C=NNC4=O)cn1,> 30 µM (inactive),> 30 µM (inactive),> 30 µM (inactive),> 30 µM (inactive),> 30 µM (inactive),> 30 µM (inactive),> 30 µM (inactive)
C[C@]1(O)C[C@@H](c2nc(-c3ccc4ccc(-c5ccccc5)nc4c3)c3c(N)nccn32)C1 [LINSITINIB],> 30 µM (inactive),> 30 µM (inactive),> 30 µM (inactive),> 30 µM (inactive),> 30 µM (inactive),> 30 µM (inactive),> 30 µM (inactive)
CN1CCN(c2nc(C3=C(c4c[nH]c5ccccc45)C(=O)NC3=O)c3ccccc3n2)CC1 [SOTRASTAURIN],> 30 µM (inactive),> 30 µM (inactive),> 30 µM (inactive),> 30 µM (inactive),> 30 µM (inactive),> 30 µM (inactive),> 30 µM (inactive)
C=CCn1c(=O)c2cnc(Nc3ccc(N4CCN(C)CC4)cc3)nc2n1-c1cccc(C(C)(C)O)n1 [ADAVOSERTIB],> 30 µM (inactive),> 30 µM (inactive),> 30 µM (inactive),> 30 µM (inactive),> 30 µM (inactive),> 30 µM (inactive),> 30 µM (inactive)
CCc1nc(C(N)=O)c(Nc2ccc(N3CCC(N4CCN(C)CC4)CC3)c(OC)c2)nc1NC1CCOCC1 [GILTERITINIB],> 30 µM (inactive),> 30 µM (inactive),1.89 µM (active),1.7 µM (active),5.48 µM,> 30 µM (inactive),> 30 µM (inactive)
